Assay results reported in patent publication US9340600B2 (Indiana University Research and Technology Corporation, priority 2012, dated 2016).
*1 amine or outer side, *2 acyl side, *3 side chain or, on linkers, in order; H or OH if unused. Where a SMILES comes first, the peptide text is derived from it. Side-chain parts run from the residue outwards. [ ]: non-standard residue; d: D form. The star is where a group is joined. γGlu = O=C(O)[C@H](CCC(=O)[*:2])N[*:1]; Palmitoyl = CCCCCCCCCCCCCCCC(=O)*; Met(O) = CS(=O)CC[C@H](N)C(=O)O; Aib = CC(C)(N)C(=O)O

Tests used:
Assay type in all cases: cell-based
GIP receptor = target: T1, GIP receptor (Homo sapiens, UniProt P48546); experiment: cAMP induction, firefly luciferase-based reporter assay in HEK293 cells co-transfected with GIP receptor; details: EC50 at GIP Receptor
T1 construct: expressed in transfected cells; host or cells: HEK293
T1 sequence (P48546 22-466): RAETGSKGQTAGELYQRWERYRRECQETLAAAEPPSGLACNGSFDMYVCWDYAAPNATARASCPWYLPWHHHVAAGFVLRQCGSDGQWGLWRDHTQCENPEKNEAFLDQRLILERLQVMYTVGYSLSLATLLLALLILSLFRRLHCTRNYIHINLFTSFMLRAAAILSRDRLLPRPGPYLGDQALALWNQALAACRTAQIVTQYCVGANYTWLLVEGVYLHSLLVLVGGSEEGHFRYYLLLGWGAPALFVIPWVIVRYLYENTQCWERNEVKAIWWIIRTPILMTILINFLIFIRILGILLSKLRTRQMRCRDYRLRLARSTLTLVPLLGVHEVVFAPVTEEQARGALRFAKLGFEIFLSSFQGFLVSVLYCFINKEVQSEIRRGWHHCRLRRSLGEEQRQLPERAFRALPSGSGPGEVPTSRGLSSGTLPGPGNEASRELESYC
Description: (§1) This example describes an exemplary method of testing the biological activity of the peptides of the present disclosures, which method involves assaying cAMP synthesis.

glucagon receptor = target: T2, glucagon receptor (Homo sapiens, UniProt P47871); experiment: cAMP induction, firefly luciferase-based reporter assay in HEK293 cells co-transfected with glucagon receptor; details: EC50 at Glucagon Receptor
T2 construct: expressed in transfected cells; host or cells: HEK293
Description: as §1

GLP-1 receptor = target: T3, GLP-1 receptor (Homo sapiens, UniProt P43220); experiment: cAMP induction, firefly luciferase-based reporter assay in HEK293 cells co-transfected with GLP-1 receptor; details: EC50 at GLP-1 Receptor
T3 construct: expressed in transfected cells; host or cells: HEK293
Description: as §1

[1] = Table 2, analogs of SEQ ID NO: 18 varying at positions 16-21
[2] = Table 4, analogs of SEQ ID NO: 43 varying at position 3
[3] = Table 3, analogs of SEQ ID NO: 18 varying at position 3

T2 sequence (P47871 26-477): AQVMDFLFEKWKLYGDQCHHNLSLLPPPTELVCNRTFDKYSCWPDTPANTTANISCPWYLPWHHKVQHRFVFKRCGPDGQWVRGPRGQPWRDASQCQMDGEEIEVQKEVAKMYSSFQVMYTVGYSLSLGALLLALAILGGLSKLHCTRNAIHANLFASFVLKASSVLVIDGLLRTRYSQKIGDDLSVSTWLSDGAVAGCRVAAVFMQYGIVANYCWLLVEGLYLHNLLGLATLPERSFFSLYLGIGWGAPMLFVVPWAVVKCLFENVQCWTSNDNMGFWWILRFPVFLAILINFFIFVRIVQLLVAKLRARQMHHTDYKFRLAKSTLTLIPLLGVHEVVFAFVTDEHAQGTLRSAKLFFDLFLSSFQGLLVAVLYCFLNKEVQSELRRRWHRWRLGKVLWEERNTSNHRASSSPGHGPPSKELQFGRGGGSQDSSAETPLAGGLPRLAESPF
T3 sequence (P43220 24-463): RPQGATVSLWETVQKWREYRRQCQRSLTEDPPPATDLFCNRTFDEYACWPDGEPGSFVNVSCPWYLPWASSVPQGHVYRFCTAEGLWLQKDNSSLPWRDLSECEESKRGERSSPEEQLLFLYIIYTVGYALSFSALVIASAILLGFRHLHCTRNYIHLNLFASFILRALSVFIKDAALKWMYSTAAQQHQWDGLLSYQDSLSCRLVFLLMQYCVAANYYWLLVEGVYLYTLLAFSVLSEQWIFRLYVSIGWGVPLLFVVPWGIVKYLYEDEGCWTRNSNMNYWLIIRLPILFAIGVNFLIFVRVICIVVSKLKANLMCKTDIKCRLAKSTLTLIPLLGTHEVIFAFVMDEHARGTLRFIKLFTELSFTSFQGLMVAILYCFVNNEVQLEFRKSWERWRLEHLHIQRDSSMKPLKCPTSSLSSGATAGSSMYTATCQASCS

## CCCCCCCCCCCCCCCC(=O)N[C@@H](CCC(=O)NCCCC[C@H](NC(=O)[C@H](CC(=O)O)NC(=O)[C@H](CO)NC(=O)[C@@H](NC(=O)[C@H](Cc1ccccc1)NC(=O)[C@@H](NC(=O)CNC(=O)[C@H](CCC(N)=O)NC(=O)C(C)(C)NC(=O)[C@@H](N)Cc1c[nH]cn1)[C@@H](C)O)[C@@H](C)O)C(=O)N[C@@H](CO)C(=O)N[C@@H](CCCCN)C(=O)N[C@@H](Cc1ccc(O)cc1)C(=O)N[C@@H](CC(C)C)C(=O)N[C@@H](CC(=O)O)C(=O)N[C@@H](Cc1c[nH]cn1)C(=O)N[C@@H](CCCNC(=N)N)C(=O)N[C@@H](C)C(=O)N[C@@H](C)C(=O)NC(C)(C)C(=O)N[C@@H](CCC(=O)O)C(=O)N[C@@H](Cc1ccccc1)C(=O)N[C@H](C(=O)N[C@@H](CCC(N)=O)C(=O)N[C@@H](Cc1c[nH]c2ccccc12)C(=O)N[C@@H](CC(C)C)C(=O)N[C@@H](CC(C)C)C(=O)N[C@@H](CC(=O)O)C(=O)NCC(=O)NCC(=O)N1CCC[C@H]1C(=O)N[C@@H](CO)C(=O)N[C@@H](CO)C(=O)NCC(=O)N[C@@H](C)C(=O)N1CCC[C@H]1C(=O)N1CCC[C@H]1C(=O)N1CCC[C@H]1C(=O)N[C@@H](CO)C(N)=O)C(C)C)C(=O)O [compound 25] (H-H[Aib]QGTFTSDK([γGlu-Palmitoyl])SKYLDHRAA[Aib]EFVQWLLDGGPSSGAPPPS-NH2; N-terminus assumed)
GIP receptor; [1]
  EC50: 3 pM
Glucagon receptor; [1]
  EC50: 5 pM
GLP-1 receptor; [1]
  EC50: 4 pM

## CCCCCCCCCCCCCCCC(=O)N[C@@H](CCC(=O)NCCCC[C@H](NC(=O)[C@H](CC(=O)O)NC(=O)[C@H](CO)NC(=O)[C@@H](NC(=O)[C@H](Cc1ccccc1)NC(=O)[C@@H](NC(=O)CNC(=O)[C@H](CC[S+](C)[O-])NC(=O)C(C)(C)NC(=O)[C@@H](N)Cc1c[nH]cn1)[C@@H](C)O)[C@@H](C)O)C(=O)N[C@@H](CO)C(=O)N[C@@H](CCCCN)C(=O)N[C@@H](Cc1ccc(O)cc1)C(=O)N[C@@H](CC(C)C)C(=O)N[C@@H](CC(=O)O)C(=O)N[C@@H](CCC(=O)O)C(=O)N[C@@H](CCCNC(=N)N)C(=O)N[C@@H](C)C(=O)N[C@@H](C)C(=O)N[C@@H](CCC(N)=O)C(=O)N[C@@H](CC(=O)O)C(=O)N[C@@H](Cc1ccccc1)C(=O)N[C@H](C(=O)N[C@@H](CCC(N)=O)C(=O)N[C@@H](Cc1c[nH]c2ccccc12)C(=O)N[C@@H](CC(C)C)C(=O)N[C@@H](CC(C)C)C(=O)N[C@@H](CCC(=O)O)C(=O)NCC(=O)NCC(=O)N1CCC[C@H]1C(=O)N[C@@H](CO)C(=O)N[C@@H](CO)C(=O)NCC(=O)N[C@@H](C)C(=O)N1CCC[C@H]1C(=O)N1CCC[C@H]1C(=O)N1CCC[C@H]1C(=O)N[C@@H](CO)C(N)=O)C(C)C)C(=O)O (stereo partly drawn) [compound 46]
GIP receptor; [2]
  EC50: 18 pM
Glucagon receptor; [2]
  EC50: 89 pM
GLP-1 receptor; [2]
  EC50: 3 pM

## CCCCCCCCCCCCCCCC(=O)N[C@@H](CCC(=O)NCCCC[C@H](NC(=O)[C@H](CC(=O)O)NC(=O)[C@H](CO)NC(=O)[C@@H](NC(=O)[C@H](Cc1ccccc1)NC(=O)[C@@H](NC(=O)CNC(=O)[C@H](CCC(N)=O)NC(=O)C(C)(C)NC(=O)[C@@H](N)Cc1c[nH]cn1)[C@@H](C)O)[C@@H](C)O)C(=O)N[C@@H](CO)C(=O)N[C@@H](CCCCN)C(=O)N[C@@H](Cc1ccc(O)cc1)C(=O)N[C@@H](CC(C)C)C(=O)N[C@@H](CC(=O)O)C(=O)NC(C)(C)C(=O)N[C@@H](CCCNC(=N)N)C(=O)N[C@@H](C)C(=O)N[C@@H](C)C(=O)NC(C)(C)C(=O)N[C@@H](CCC(=O)O)C(=O)N[C@@H](Cc1ccccc1)C(=O)N[C@H](C(=O)N[C@@H](CCC(N)=O)C(=O)N[C@@H](Cc1c[nH]c2ccccc12)C(=O)N[C@@H](CC(C)C)C(=O)N[C@@H](CC(C)C)C(=O)N[C@@H](CC(=O)O)C(=O)NCC(=O)NCC(=O)N1CCC[C@H]1C(=O)N[C@@H](CO)C(=O)N[C@@H](CO)C(=O)NCC(=O)N[C@@H](C)C(=O)N1CCC[C@H]1C(=O)N1CCC[C@H]1C(=O)N1CCC[C@H]1C(=O)N[C@@H](CO)C(N)=O)C(C)C)C(=O)O [compound 24] (H-H[Aib]QGTFTSDK([γGlu-Palmitoyl])SKYLD[Aib]RAA[Aib]EFVQWLLDGGPSSGAPPPS-NH2)
GIP receptor; [1]
  EC50: 5 pM
Glucagon receptor; [1]
  EC50: 2 pM
GLP-1 receptor; [1]
  EC50: 10 pM

## CCCCCCCCCCCCCCCC(=O)N[C@@H](CCC(=O)NCCCC[C@H](NC(=O)[C@H](CC(=O)O)NC(=O)[C@H](CO)NC(=O)[C@@H](NC(=O)[C@H](Cc1ccccc1)NC(=O)[C@@H](NC(=O)CNC(=O)[C@H](CC[S+](C)[O-])NC(=O)C(C)(C)NC(=O)[C@@H](N)Cc1c[nH]cn1)[C@@H](C)O)[C@@H](C)O)C(=O)N[C@@H](CO)C(=O)N[C@@H](CCCCN)C(=O)N[C@@H](Cc1ccc(O)cc1)C(=O)N[C@@H](CC(C)C)C(=O)N[C@@H](CCC(=O)O)C(=O)N[C@@H](CCC(=O)O)C(=O)N[C@@H](CCCNC(=N)N)C(=O)N[C@@H](C)C(=O)N[C@@H](C)C(=O)N[C@@H](CCC(N)=O)C(=O)N[C@@H](CCC(=O)O)C(=O)N[C@@H](Cc1ccccc1)C(=O)N[C@H](C(=O)N[C@@H](CCC(N)=O)C(=O)N[C@@H](Cc1c[nH]c2ccccc12)C(=O)N[C@@H](CC(C)C)C(=O)N[C@@H](CC(C)C)C(=O)N[C@@H](CCC(=O)O)C(=O)NCC(=O)NCC(=O)N1CCC[C@H]1C(=O)N[C@@H](CO)C(=O)N[C@@H](CO)C(=O)NCC(=O)N[C@@H](C)C(=O)N1CCC[C@H]1C(=O)N1CCC[C@H]1C(=O)N1CCC[C@H]1C(=O)N[C@@H](CO)C(N)=O)C(C)C)C(=O)O (stereo partly drawn) [compound 42] (H-H[Aib][Met(O)]GTFTSDK([γGlu-Palmitoyl])SKYLEERAAQEFVQWLLEGGPSSGAPPPS-NH2)
GIP receptor; [3]
  EC50: 6 pM
Glucagon receptor; [3]
  EC50: 42 pM
GLP-1 receptor; [3]
  EC50: 1 pM

## CCCCCCCCCCCCCCCC(=O)N[C@@H](CCC(=O)NCCCC[C@H](NC(=O)[C@H](CC(=O)O)NC(=O)[C@H](CO)NC(=O)[C@@H](NC(=O)[C@H](Cc1ccccc1)NC(=O)[C@@H](NC(=O)CNC(=O)[C@H](CCC(N)=O)NC(=O)C(C)(C)NC(=O)[C@@H](N)Cc1c[nH]cn1)[C@@H](C)O)[C@@H](C)O)C(=O)N[C@@H](CO)C(=O)N[C@@H](CCCCN)C(=O)N[C@@H](Cc1ccc(O)cc1)C(=O)N[C@@H](CC(C)C)C(=O)N[C@@H](CC(=O)O)C(=O)N[C@@H](CCC(=O)O)C(=O)N[C@@H](CCCNC(=N)N)C(=O)N[C@@H](C)C(=O)N[C@@H](C)C(=O)NC(C)(C)C(=O)N[C@@H](CCC(=O)O)C(=O)N[C@@H](Cc1ccccc1)C(=O)N[C@H](C(=O)N[C@@H](CCC(N)=O)C(=O)N[C@@H](Cc1c[nH]c2ccccc12)C(=O)N[C@@H](CC(C)C)C(=O)N[C@@H](CC(C)C)C(=O)N[C@@H](CC(=O)O)C(=O)NCC(=O)NCC(=O)N1CCC[C@H]1C(=O)N[C@@H](CO)C(=O)N[C@@H](CO)C(=O)NCC(=O)N[C@@H](C)C(=O)N1CCC[C@H]1C(=O)N1CCC[C@H]1C(=O)N1CCC[C@H]1C(=O)N[C@@H](CO)C(N)=O)C(C)C)C(=O)O [compound 21] (H-H[Aib]QGTFTSDK([γGlu-Palmitoyl])SKYLDERAA[Aib]EFVQWLLDGGPSSGAPPPS-NH2; N-terminus assumed)
GIP receptor; [1]
  EC50: 1 pM
Glucagon receptor; [1]
  EC50: 2 pM
GLP-1 receptor; [1]
  EC50: 4 pM

## CCCCCCCCCCCCCCCC(=O)N[C@@H](CCC(=O)NCCCC[C@H](NC(=O)[C@H](CC(=O)O)NC(=O)[C@H](CO)NC(=O)[C@@H](NC(=O)[C@H](Cc1ccccc1)NC(=O)[C@@H](NC(=O)CNC(=O)[C@H](CCC(N)=O)NC(=O)C(C)(C)NC(=O)[C@@H](N)Cc1c[nH]cn1)[C@@H](C)O)[C@@H](C)O)C(=O)N[C@@H](CO)C(=O)N[C@@H](CCCCN)C(=O)N[C@@H](Cc1ccc(O)cc1)C(=O)N[C@@H](CC(C)C)C(=O)N[C@@H](CC(=O)O)C(=O)N[C@@H](CCC(=O)O)C(=O)N[C@@H](CCCNC(=N)N)C(=O)N[C@@H](C)C(=O)NC(C)(C)C(=O)N[C@@H](C)C(=O)N[C@@H](CCC(=O)O)C(=O)N[C@@H](Cc1ccccc1)C(=O)N[C@H](C(=O)N[C@@H](CCC(N)=O)C(=O)N[C@@H](Cc1c[nH]c2ccccc12)C(=O)N[C@@H](CC(C)C)C(=O)N[C@@H](CC(C)C)C(=O)N[C@@H](CC(=O)O)C(=O)NCC(=O)NCC(=O)N1CCC[C@H]1C(=O)N[C@@H](CO)C(=O)N[C@@H](CO)C(=O)NCC(=O)N[C@@H](C)C(=O)N1CCC[C@H]1C(=O)N1CCC[C@H]1C(=O)N1CCC[C@H]1C(=O)N[C@@H](CO)C(N)=O)C(C)C)C(=O)O [compound 23] (H-H[Aib]QGTFTSDK([γGlu-Palmitoyl])SKYLDERA[Aib]AEFVQWLLDGGPSSGAPPPS-NH2)
GIP receptor; [1]
  EC50: 13 pM
Glucagon receptor; [1]
  EC50: 261 pM
GLP-1 receptor; [1]
  EC50: 7 pM
